Earlier results as cited in paper PMC9516332 (Frontiers in Oncology, 2022).
Like-named read-outs stand apart in the source and are kept apart here.

What was measured:
Conditions in all cases: cited from earlier work
[1] = biological target: panel of 255 wild-type kinases (Homo sapiens, UniProt P11362)
[2] = biological target: T1, panel of 255 wild-type kinases (Homo sapiens, UniProt P43403)
T1 sequence (P43403 1-619): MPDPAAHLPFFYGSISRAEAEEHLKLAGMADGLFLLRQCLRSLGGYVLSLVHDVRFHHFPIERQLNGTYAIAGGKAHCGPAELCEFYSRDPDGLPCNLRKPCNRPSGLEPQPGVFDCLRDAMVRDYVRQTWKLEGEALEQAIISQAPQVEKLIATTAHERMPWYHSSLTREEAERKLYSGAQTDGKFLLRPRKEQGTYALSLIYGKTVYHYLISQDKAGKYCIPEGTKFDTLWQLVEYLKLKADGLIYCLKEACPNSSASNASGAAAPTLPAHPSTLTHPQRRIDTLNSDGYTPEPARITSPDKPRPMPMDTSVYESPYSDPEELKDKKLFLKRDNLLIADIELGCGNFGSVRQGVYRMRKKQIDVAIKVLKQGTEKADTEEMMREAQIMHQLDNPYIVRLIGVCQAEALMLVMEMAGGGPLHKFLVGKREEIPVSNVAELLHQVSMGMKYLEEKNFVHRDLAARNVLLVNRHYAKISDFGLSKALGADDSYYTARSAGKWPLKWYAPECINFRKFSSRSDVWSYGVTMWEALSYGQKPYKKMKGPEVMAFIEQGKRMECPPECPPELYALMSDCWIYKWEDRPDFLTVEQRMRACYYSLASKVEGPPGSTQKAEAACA

[3] = biological target: panel of 255 wild-type kinases (Homo sapiens, UniProt Q05397)
[4] = biological target: T2, panel of 255 wild-type kinases (Homo sapiens, UniProt O15146)
T2 sequence (O15146 24-869): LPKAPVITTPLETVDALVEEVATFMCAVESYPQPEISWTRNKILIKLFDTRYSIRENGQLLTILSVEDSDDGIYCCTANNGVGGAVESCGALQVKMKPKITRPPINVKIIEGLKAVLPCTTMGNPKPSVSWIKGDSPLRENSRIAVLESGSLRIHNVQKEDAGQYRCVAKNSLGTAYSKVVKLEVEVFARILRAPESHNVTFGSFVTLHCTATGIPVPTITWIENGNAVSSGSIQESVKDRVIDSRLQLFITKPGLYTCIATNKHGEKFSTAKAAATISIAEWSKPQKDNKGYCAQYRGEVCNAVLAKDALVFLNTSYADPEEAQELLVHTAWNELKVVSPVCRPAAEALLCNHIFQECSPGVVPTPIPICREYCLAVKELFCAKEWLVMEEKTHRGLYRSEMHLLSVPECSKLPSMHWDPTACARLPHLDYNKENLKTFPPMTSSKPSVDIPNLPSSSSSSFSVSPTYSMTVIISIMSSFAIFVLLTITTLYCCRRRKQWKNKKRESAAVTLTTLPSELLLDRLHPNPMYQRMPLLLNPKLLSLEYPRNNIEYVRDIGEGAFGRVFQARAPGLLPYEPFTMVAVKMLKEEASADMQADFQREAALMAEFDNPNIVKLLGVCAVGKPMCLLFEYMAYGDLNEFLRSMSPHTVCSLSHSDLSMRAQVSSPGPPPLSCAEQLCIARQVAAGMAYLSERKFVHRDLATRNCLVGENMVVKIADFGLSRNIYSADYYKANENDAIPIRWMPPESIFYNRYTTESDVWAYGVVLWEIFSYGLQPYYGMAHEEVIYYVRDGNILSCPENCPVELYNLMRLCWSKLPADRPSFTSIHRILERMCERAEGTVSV

[5] = biological target: T3, panel of 255 wild-type kinases (Homo sapiens, UniProt Q8TF76)
T3 sequence (Q8TF76 1-798): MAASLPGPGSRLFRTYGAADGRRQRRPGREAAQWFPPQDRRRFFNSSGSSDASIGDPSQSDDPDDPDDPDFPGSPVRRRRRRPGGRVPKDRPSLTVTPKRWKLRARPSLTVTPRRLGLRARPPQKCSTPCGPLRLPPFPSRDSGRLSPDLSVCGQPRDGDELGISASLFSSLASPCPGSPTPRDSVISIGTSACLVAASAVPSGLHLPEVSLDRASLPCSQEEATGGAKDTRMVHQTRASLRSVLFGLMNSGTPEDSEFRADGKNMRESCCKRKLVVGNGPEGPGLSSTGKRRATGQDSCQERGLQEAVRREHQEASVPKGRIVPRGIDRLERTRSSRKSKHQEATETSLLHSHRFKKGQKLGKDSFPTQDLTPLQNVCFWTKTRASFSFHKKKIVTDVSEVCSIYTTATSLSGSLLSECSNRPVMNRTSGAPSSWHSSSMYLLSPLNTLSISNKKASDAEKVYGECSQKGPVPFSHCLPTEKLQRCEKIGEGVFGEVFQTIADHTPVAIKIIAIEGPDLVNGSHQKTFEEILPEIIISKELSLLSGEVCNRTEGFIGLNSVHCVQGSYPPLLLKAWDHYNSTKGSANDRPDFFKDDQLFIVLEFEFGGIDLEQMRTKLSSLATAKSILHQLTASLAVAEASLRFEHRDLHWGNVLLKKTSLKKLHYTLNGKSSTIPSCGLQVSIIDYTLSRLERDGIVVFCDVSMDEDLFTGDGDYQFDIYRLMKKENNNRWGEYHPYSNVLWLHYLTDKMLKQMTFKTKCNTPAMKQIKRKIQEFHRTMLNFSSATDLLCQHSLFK

[6] = biological target: panel of 255 wild-type kinases (Homo sapiens, UniProt P51617)
[7] = biological target: panel of 255 wild-type kinases (Homo sapiens, UniProt P53355)
[8] = kinase FGFR1, 1 µmol/L single concentration, ref DOI: 10.1158/1535-7163.MCT-18-0877
[9] = kinase ZAP70, 1 µmol/L single concentration, ref DOI: 10.1158/1535-7163.MCT-18-0877
[10] = kinase FAK, 1 µmol/L single concentration, ref DOI: 10.1158/1535-7163.MCT-18-0877
[11] = MUSK, 1 µmol/L single concentration, ref DOI: 10.1158/1535-7163.MCT-18-0877
[12] = kinase Haspin, 1 µmol/L single concentration, ref DOI: 10.1158/1535-7163.MCT-18-0877
[13] = kinase IRAK1, 1 µmol/L single concentration, ref DOI: 10.1158/1535-7163.MCT-18-0877
[14] = kinase DAPK1, 1 µmol/L single concentration, ref DOI: 10.1158/1535-7163.MCT-18-0877
[15] = kinase FGFR1, 1 µmol/L single concentration, ref DOI: 10.1371/journal.pone.0092146
[16] = kinase ZAP70, 1 µmol/L single concentration, ref DOI: 10.1371/journal.pone.0092146
[17] = kinase FAK, 1 µmol/L single concentration, ref DOI: 10.1371/journal.pone.0092146
[18] = MUSK, 1 µmol/L single concentration, ref DOI: 10.1371/journal.pone.0092146
[19] = kinase Haspin, 1 µmol/L single concentration, ref DOI: 10.1371/journal.pone.0092146
[20] = kinase IRAK1, 1 µmol/L single concentration, ref DOI: 10.1371/journal.pone.0092146
[21] = kinase DAPK1, 1 µmol/L single concentration, ref DOI: 10.1371/journal.pone.0092146

Row | SMILES | %-inhibition at 1 µmol/L, FGFR1 [1, 8] [%] | %-inhibition at 1 µmol/L, ZAP70 [2, 9] [%] | %-inhibition at 1 µmol/L, FAK [3, 10] [%] | %-inhibition, MUSK [4, 11] [%] | %-inhibition at 1 µmol/L, Haspin [5, 12] [%] | %-inhibition at 1 µmol/L, IRAK1 [6, 13] [%] | %-inhibition at 1 µmol/L, DAPK1 [7, 14] [%] | %-inhibition at 1 µmol/L, FGFR1 [1, 15] [%] | %-inhibition at 1 µmol/L, ZAP70 [2, 16] [%] | %-inhibition at 1 µmol/L, FAK [3, 17] [%] | %-inhibition, MUSK [4, 18] [%] | %-inhibition at 1 µmol/L, Haspin [5, 19] [%] | %-inhibition at 1 µmol/L, IRAK1 [6, 20] [%] | %-inhibition at 1 µmol/L, DAPK1 [7, 21] [%] | also measured
1 | CC#CC(=O)N1CCC[C@H]1c1nc(-c2ccc(C(=O)Nc3ccccn3)cc2)c2c(N)nccn12 [acalabrutinib] | -2.28 | -1.53 | -1.39 | -0.581 | 5.31 | -7 | -17 | – | – | – | – | – | – | – | –
2 | CCc1cc2c(cc1N1CCC(N3CCOCC3)CC1)C(C)(C)c1[nH]c3cc(C#N)ccc3c1C2=O [alectinib] | 5.37 | 1.18 | 17 | 6 | 8 | 92 | 58 | – | – | – | – | – | – | – | –
3 | COc1cc(N2CCC(N3CCN(C)CC3)CC2)ccc1Nc1ncc(Cl)c(Nc2ccccc2P(C)(C)=O)n1 [brigatinib] | – | – | – | – | – | – | – | – | – | – | – | – | – | – | %-inhibition at 1 µmol/L, FGFR1 [1]: 95%; %-inhibition at 1 µmol/L, ZAP70 [2]: 74%; %-inhibition at 1 µmol/L, FAK [3]: 99%; %-inhibition, MUSK [4]: 82%; %-inhibition at 1 µmol/L, Haspin [5]: 9%; %-inhibition at 1 µmol/L, IRAK1 [6]: 69%; %-inhibition at 1 µmol/L, DAPK1 [7]: 83%
4 | Cc1cc(Nc2ncc(Cl)c(Nc3ccccc3S(=O)(=O)C(C)C)n2)c(OC(C)C)cc1C1CCNCC1 [ceritinib] | 11 | 10 | 100 | 45 | 7 | 9 | 6 | – | – | – | – | – | – | – | –
5 | O=C(c1ccc(F)c(F)c1Nc1ccc(I)cc1F)N1CC(O)([C@@H]2CCCCN2)C1 [cobimetinib] | -1.33 | -3 | -4 | 2.78 | 8 | 0.65 | -4 | – | – | – | – | – | – | – | –
6 | C[C@@H](Oc1cc(-c2cnn(C3CCNCC3)c2)cnc1N)c1c(Cl)ccc(F)c1Cl [crizotinib] | – | – | – | – | – | – | – | 17 | 21 | 90 | 99 | 7 | 92 | -4 | –
7 | CC(C)(C)c1nc(-c2cccc(NS(=O)(=O)c3c(F)cccc3F)c2F)c(-c2ccnc(N)n2)s1 [dabrafenib] | – | – | – | – | – | – | – | 10 | 3.47 | 13 | 16 | 9 | -48 | -0.54 | –
8 | C=CC(=O)N1CCC[C@@H](n2nc(-c3ccc(Oc4ccccc4)cc3)c3c(N)ncnc32)C1 [ibrutinib] | 71 | -4.51 | 5 | 1.76 | 2.53 | -11 | -3.8 | – | – | – | – | – | – | – | –
9 | CO[C@@H]1[C@H](N(C)C(=O)c2ccccc2)C[C@H]2O[C@]1(C)n1c3ccccc3c3c4c(c5c6ccccc6n2c5c31)C(=O)NC4 [midostaurin] | 93 | 94 | 28 | 94 | 31 | 10 | 57 | – | – | – | – | – | – | – | –
10 | C=CC(=O)Nc1cc(Nc2nccc(-c3cn(C)c4ccccc34)n2)c(OC)cc1N(C)CCN(C)C [osimertinib] | 3.51 | 18 | 81 | 8 | 14 | 7 | 29 | – | – | – | – | – | – | – | –
11 | CC(=O)Nc1cccc(-n2c(=O)n(C3CC3)c(=O)c3c(Nc4ccc(I)cc4F)n(C)c(=O)c(C)c32)c1 [trametinib] | – | – | – | – | – | – | – | -1.45 | -3 | -2.41 | -0.929 | 5 | 6 | -6 | –
12 | CCCS(=O)(=O)Nc1ccc(F)c(C(=O)c2c[nH]c3ncc(-c4ccc(Cl)cc4)cc23)c1F [vemurafenib] | – | – | – | – | – | – | – | 21 | 6 | -3.55 | -0.285 | -3 | 10 | -0.115 | –
